Details: Liquid, Vibrating tube method

CCCCCCC(C)N (stereo not given) [1-methylheptylamine]
Details	mass density [kg/m3]
293.15 K, 100 kPa	772
293.15 K, 10000 kPa	778.7
293.15 K, 20000 kPa	784.8
293.15 K, 30000 kPa	790.6
293.15 K, 40000 kPa	796.1
293.15 K, 50000 kPa	801.2
293.15 K, 60000 kPa	806
293.15 K, 70000 kPa	810.6
293.15 K, 80000 kPa	815
293.15 K, 90000 kPa	819.1
293.15 K, 100000 kPa	823.2
293.15 K, 110000 kPa	826.9
293.15 K, 120000 kPa	830.6
293.15 K, 130000 kPa	834.2
293.15 K, 140000 kPa	837.6
303.15 K, 100 kPa	764
303.15 K, 10000 kPa	771.3
303.15 K, 20000 kPa	777.8
303.15 K, 30000 kPa	783.8
303.15 K, 40000 kPa	789.2
303.15 K, 50000 kPa	794.5
303.15 K, 60000 kPa	799.5
303.15 K, 70000 kPa	804.2
303.15 K, 80000 kPa	808.7
303.15 K, 90000 kPa	813
303.15 K, 100000 kPa	817.1
303.15 K, 110000 kPa	821
303.15 K, 120000 kPa	824.8
303.15 K, 130000 kPa	828.5
303.15 K, 140000 kPa	832
313.15 K, 100 kPa	755.8
313.15 K, 10000 kPa	763.5
313.15 K, 20000 kPa	770.4
313.15 K, 30000 kPa	776.7
313.15 K, 40000 kPa	782.5
313.15 K, 50000 kPa	788.1
313.15 K, 60000 kPa	793.2
313.15 K, 70000 kPa	798.1
313.15 K, 80000 kPa	802.7
313.15 K, 90000 kPa	807.1
313.15 K, 100000 kPa	811.4
313.15 K, 110000 kPa	815.5
313.15 K, 120000 kPa	819.4
313.15 K, 130000 kPa	823.1
313.15 K, 140000 kPa	826.7
323.15 K, 100 kPa	748.1
323.15 K, 10000 kPa	756
323.15 K, 20000 kPa	763.2
323.15 K, 30000 kPa	769.9
323.15 K, 40000 kPa	776
323.15 K, 50000 kPa	781.6
323.15 K, 60000 kPa	787.1
323.15 K, 70000 kPa	792.2
323.15 K, 80000 kPa	797
323.15 K, 90000 kPa	801.5
323.15 K, 100000 kPa	805.9
323.15 K, 110000 kPa	810.1
323.15 K, 120000 kPa	814.1
323.15 K, 130000 kPa	818
323.15 K, 140000 kPa	821.6
333.15 K, 100 kPa	739.6
333.15 K, 10000 kPa	748.1
333.15 K, 20000 kPa	755.5
333.15 K, 30000 kPa	762.6
333.15 K, 40000 kPa	769
333.15 K, 50000 kPa	775
333.15 K, 60000 kPa	780.6
333.15 K, 70000 kPa	785.8
333.15 K, 80000 kPa	790.9
333.15 K, 90000 kPa	795.5
333.15 K, 100000 kPa	800
333.15 K, 110000 kPa	804.4
333.15 K, 120000 kPa	808.5
333.15 K, 130000 kPa	812.5
333.15 K, 140000 kPa	816.3
343.15 K, 100 kPa	731.5
343.15 K, 10000 kPa	740.5
343.15 K, 20000 kPa	748.6
343.15 K, 30000 kPa	756
343.15 K, 40000 kPa	762.7
343.15 K, 50000 kPa	768.9
343.15 K, 60000 kPa	774.7
343.15 K, 70000 kPa	780.2
343.15 K, 80000 kPa	785.3
343.15 K, 90000 kPa	790.2
343.15 K, 100000 kPa	794.9
343.15 K, 110000 kPa	799.2
343.15 K, 120000 kPa	803.4
343.15 K, 130000 kPa	807.5
343.15 K, 140000 kPa	811.4
353.15 K, 100 kPa	723.2
353.15 K, 10000 kPa	733
353.15 K, 20000 kPa	741.6
353.15 K, 30000 kPa	749.3
353.15 K, 40000 kPa	756.2
353.15 K, 50000 kPa	762.7
353.15 K, 60000 kPa	768.7
353.15 K, 70000 kPa	774.4
353.15 K, 80000 kPa	779.7
353.15 K, 90000 kPa	784.7
353.15 K, 100000 kPa	789.5
353.15 K, 110000 kPa	794.1
353.15 K, 120000 kPa	798.4
353.15 K, 130000 kPa	802.3
353.15 K, 140000 kPa	806.3
363.15 K, 100 kPa	714.7
363.15 K, 10000 kPa	724.9
363.15 K, 20000 kPa	734
363.15 K, 30000 kPa	742
363.15 K, 40000 kPa	749.3
363.15 K, 50000 kPa	756.1
363.15 K, 60000 kPa	762.4
363.15 K, 70000 kPa	768.3
363.15 K, 80000 kPa	773.8
363.15 K, 90000 kPa	779
363.15 K, 100000 kPa	783.9
363.15 K, 110000 kPa	788.5
363.15 K, 120000 kPa	793
363.15 K, 130000 kPa	797.3
363.15 K, 140000 kPa	801.4
373.15 K, 100 kPa	706
373.15 K, 10000 kPa	717.2
373.15 K, 20000 kPa	726.6
373.15 K, 30000 kPa	735.2
373.15 K, 40000 kPa	742.9
373.15 K, 50000 kPa	749.9
373.15 K, 60000 kPa	756.8
373.15 K, 70000 kPa	762.8
373.15 K, 80000 kPa	768.5
373.15 K, 90000 kPa	773.8
373.15 K, 100000 kPa	778.9
373.15 K, 110000 kPa	783.7
373.15 K, 120000 kPa	788.3
373.15 K, 130000 kPa	792.8
373.15 K, 140000 kPa	796.8
383.15 K, 100 kPa	697.6
383.15 K, 10000 kPa	709.4
383.15 K, 20000 kPa	719.5
383.15 K, 30000 kPa	728.5
383.15 K, 40000 kPa	736.4
383.15 K, 50000 kPa	743.8
383.15 K, 60000 kPa	750.6
383.15 K, 70000 kPa	756.8
383.15 K, 80000 kPa	762.7
383.15 K, 90000 kPa	768.1
383.15 K, 100000 kPa	773.3
383.15 K, 110000 kPa	778.3
383.15 K, 120000 kPa	783
383.15 K, 130000 kPa	787.5
383.15 K, 140000 kPa	791.8
393.15 K, 100 kPa	689
393.15 K, 10000 kPa	701.6
393.15 K, 20000 kPa	712.3
393.15 K, 30000 kPa	721.7
393.15 K, 40000 kPa	730
393.15 K, 50000 kPa	737.9
393.15 K, 60000 kPa	744.9
393.15 K, 70000 kPa	751.4
393.15 K, 80000 kPa	757.5
393.15 K, 90000 kPa	763.2
393.15 K, 100000 kPa	768.6
393.15 K, 110000 kPa	773.6
393.15 K, 120000 kPa	778.4
393.15 K, 130000 kPa	782.8
393.15 K, 140000 kPa	787.2
403.15 K, 100 kPa	680.1
403.15 K, 10000 kPa	693.5
403.15 K, 20000 kPa	705
403.15 K, 30000 kPa	714.8
403.15 K, 40000 kPa	723.5
403.15 K, 50000 kPa	731.5
403.15 K, 60000 kPa	738.7
403.15 K, 70000 kPa	745.4
403.15 K, 80000 kPa	751.6
403.15 K, 90000 kPa	757.5
403.15 K, 100000 kPa	763.1
403.15 K, 110000 kPa	768.3
403.15 K, 120000 kPa	773.2
403.15 K, 130000 kPa	777.9
403.15 K, 140000 kPa	782.4

— the NIST ThermoML archive (doi:10.1021/je800786k)
